pIC50: −log10 of the molar value.
Tests used:
[1] = system: normal bone marrow progenitor cells; assay: Methylcellulose hematopoietic cell colony assay; format: cell-based, human; settings: up to 10 mM, colonies counted on day 14
Description: Human bone marrow cells from non-leukemic patients were resuspended in a volume of 0.3 mL of IMDM with 20% FBS at 5×10^5 cells/mL and mixed with varying concentrations of the Compound A (10 pM to 10 mM in 0.1% DMSO) or 0.1% DMSO control. This was added to 3 mL of methylcellulose-containing growth factors IL-3, IL-6, G-CSF, erythropoietin, SCF (Methocult GF-H4434; Stem Cell Technology) and plated. The colonies were observed daily and counted on day 14.

[2] = system: KG-1 cells; assay: Viable cell count of engineered KG-1 cell lines (CREB KD, GFP, CREB OE, CBP OE); format: cell-based; settings: Homo sapiens, KG-1, 48 h, 48 hours
Description: (§1) AML cell lines were purchased from ATCC and maintained with IMDM (Gibco) supplemented with 10% FBS (Fisher Scientific) and 1% PSG (Gibco). Cells were plated at a density of 2-4×10^5 cells/ml, and treated with various doses of Compound A in 0.1% DMSO or 0.1% DMSO alone. Cell counts and viability were determined using the Vi-CELL XR Cell Viability Analyzer (Beckman Coulter). HL-60 and KG-1 cells overexpressing CREB or CBP were generated using lentiviral gene delivery with subsequent puromycin selection and FACs sorting for GFP. CREB knockdown was achieved by infecting cells with a lentivirus expressing the shRNA sequence 5′-[…]-3′ (SEQ ID NO:). For chemotherapy combination experiments, combination index values were calculated using median effects analysis on Calcusyn software. Human patient bone marrow samples were cultured in DMEM plus 20% FBS and 1×PSG, supplemented with recombinant GM-CSF (20 ng/ml), G-CSF (20 ng/ml), SCF (50 ng/ml), IL-3 (20 ng/ml), and IL-6 (10 ng/ml). Cells were plated at a concentration of 1×10^5 cells/ml in a 12-well plate. Vehicle (0.1% DMSO) or Compound A (2 μM) was added for up to 72 hours. All samples contained >85% AML blasts and were not sorted prior to performing experiments. Immunostaining and flow cytometry analyses were performed according to standard procedures. All antibodies were purchased from BD Biosciences. Single cell suspensions of bone marrow culture were subsequently analyzed on a D×P10 flow cytometer (Cytek). Bone marrow from AML patients were collected through voluntary patient participation at University of California, Los Angeles (Los Angeles, Calif., USA) and Stanford University (Palo Alto, Calif., USA) in compliance with the Institutional Review Board regulations of each institution.
To test the effects of CREB inhibition on AML cells, four AML cell lines were treated with doses of Compound A ranging from 100 pM to 10 μM for 48 hours. […] KG-1 cells were less sensitive to Compound A and expressed lower levels of CREB compared to HL-60 cells (FIG. 2, panel A). CREB was overexpressed to determine whether sensitivity of KG-1 cells to Compound A could be increased. KG-1 cell lines in which CREB or CBP was overexpressed, or CREB was knocked down by shRNA, were generated (FIG. 2C). A KG-1 cell line expressing only GFP was used as a control. These cell lines were treated with a range of Compound A concentrations for 48 hours (FIG. 2D). Experiments were also performed to examine the efficacy of combining Compound A with cytarabine or daunorubicin, standard drugs used in AML therapy.

[3] = system: CREB-bound genes in KG-1 cells; assay: RNA-Seq of KG-1 cells; format: cell-based
Description: For Chip-Seq experiments, KG-1 cells were treated with 5 μM Compound A or DMSO for 6 hours. Cells were cross-linked with 1% formaldehyde at room temperature for 10 min and then incubated with […] for 5 min. After cross-linking, chromatin was digested by Micrococcal nuclease and then sonicated using SimpleChIP® Plus Enzymatic Chromatin IP Kit (Cell Signaling, Danvers, Mass.) following the manufacturer's protocol. Chromatin immunoprecipitations were carried out with anti-CREB antibody (Millipore, Billerica, Mass.) or a control IgG (Santa Cruz Biotechnology). The captured immunocomplexes containing bound transcriptional DNA fragments were eluted, with recovered DNA fragments used for PCR amplification. For RNA-Seq experiments, KG-1 cells were treated with Compound A (5 μM) or 0.1% DMSO for 12 hours. RNA was prepared using the Aurum Total RNA Mini Kit (Bio-Rad). Sample libraries were run using the Illumina sequencing platform. Two hundred million reads were collected on two biological replicates of the experiment. Libraries were prepared using the Illumina Truseq RNA samples prep kit per manufacturer's instructions. Fastq files were aligned using TopHat. Aligned BAM files were used for CuffDiff calculation of differentially expressed genes. CummeRbund R package was used to infer QC of the RNA-seq (GEO Submission GSE74928) [NCBI tracking system #17594369]. ChIP-seq analysis was performed. BETA analysis was used by inferring differentially expressed genes between DMSO and Compound A treated cells based on a fdr≤0.01 and gene distance of 100 kb (Galaxy/cistrome). DNA sequences enriched on ChIP-Seq were defined.
To determine the functional specificity and downstream effects of Compound A in AML, the CREB transcriptome was first defined in KG-1 cells using CREB chromatin immunoprecipitation followed by high-throughput sequencing (CREB ChIP-Se). […] In this way, the ‘on-target’ effects of Compound A could be assessed.

[4] = system: AML cell lines; assay: Viable cell count of AML cell lines (Vi-CELL); format: cell-based; settings: four AML cell lines, 48 hours; range across lines, units printed with the values; read-out: IC50, 50% reduced viable cell count compared to DMSO-treated cells
Description: as §1, with “Immunostaining and flow cytometry analyses were performed according to standard procedures. All antibodies were purchased from BD Biosciences.” left out, “Bone marrow from AML patients were collected through voluntary patient participation at University of California, Los Angeles (Los Angeles, Calif., USA) and Stanford University (Palo Alto, Calif., USA) in compliance with the Institutional Review Board regulations of each institution.” left out

## N#Cc1ccc(NC(=O)c2cc3ccccc3cc2O)cc1 [Compound A, N-(4-cyanophenyl)-3-hydroxy-2-naphthamide]
[1]
  colony formation: no significant decrease in colony formation
[2]; KG-1 CBP OE
  pIC50: 6.08
[2]; KG-1 CREB KD
  pIC50: 5.75
[2]; KG-1 CREB OE
  pIC50: 6.16
[2]; KG-1 GFP control
  pIC50: 5.98
[3]; 5 μM, 12 hours
  number of CREB-bound genes with greater than 50% reduced expression: 602
[3]; 5 μM, 12 hours, of 4680 CREB-bound sites
  number of CREB-bound genes with reduced expression: 2787
[3]; KG-1 cells, RNA-Seq
  target gene expression of other CBP-binding transcription factors (Rel, RelA, RelB, Foxo3, Foxo1, Myb): no significant change
[4]
  pIC50: 5.64 to 6.06
